# In patent US12350308B2, “Phosphorylcholine conjugates and uses thereof” (TPCERA LTD., priority 2013, dated 2025):
# *1 amine or outer side, *2 acyl side, *3 side chain or, on linkers, in order; H or OH if unused. Where a SMILES comes first, the peptide text is derived from it. [ ]: non-standard residue; d: D form. X1 = C[N+](C)(C)CCOP(=O)([O-])Oc1ccc(N=Nc2cc(C[C@H](N[*:1])C(=O)[*:2])ccc2O)cc1
# Legend:
# Type in all cases: in vivo
# [1] = tested on: female NZBxW/F1 lupus prone mice; experiment: Proteinuria onset and immune complex deposits in lupus prone mice treated with TD-PC; details: s.c., prophylactic from week 14
# From the text: To examine the potential protective effect of TD-PC (SEQ ID NO: 25 conjugated to PC), female NZBxW/F1 lupus prone mice received subcutaneous injections (s.c) of the TD-PC conjugate, phosphorylcholine (PC), tuftsin derivative (SEQ ID NO: 25) or PBS (control) via a prophylactic protocol starting at week 14, before the clinical onset of lupus (n ¼ 15 per group).
# Breg cells = experiment: Breg expansion in splenocytes of CIA mice (FACS), Example 17; details: subsets CD19+IL-10+TIM-1+ and IL-10highCD5highCD1dhigh; vs PBS
# Procedure: The mean percentage of Breg cells in isolated splenocytes following treatment with TD-PC or PBS was measured within two main subsets CD19+IL-10+TIM-1+ (representative data: FIG. 30A, statistics: FIG. 30C, n=15) and IL-10^highCD5^highCD1d^high (representative data: FIG. 30B, statistics: FIG. 30D, n=15).
# [2] = tested on: splenocytes of NZBW/F1 female mice; experiment: Cytokine secretion in-vitro by splenocytes of lupus mice treated with TD-PC; details: vs PBS
# Procedure: (§1) NZBW/F1 female mice having lupus were treated with TD-PC (SEQ ID NO: 25 conjugated to PC) or the corresponding control treatments. Mice were sacrificed at week 30, and their splenocytes were studied in-vitro for the expression of pro-inflammatory cytokines (IFNγ, IL-17) and anti-inflammatory (TGFβ, IL-10) cytokines using RT-PCR. […] In contrast, TD-PC increased the mRNA expression of the anti-inflammatory cytokine TGFβ in the (p<0.001) compared to the mRNA expressed by splenocytes derived from PBS-treated mice (FIG. 24A).
# However, a prominent increase in anti-inflammatory cytokines (TGFβ, IL-10) secretion in-vitro by splenocytes derived from TD-PC treated mice is illustrated in FIG. 24B. […] IFNγ secretion upon tuftsin derivative (SEQ ID NO: 25) or PC treatments was reduced by 2.5 and 1.5 times respectively (p<0.03 and p<0.04, respectively).
# [3] = tested on: splenocytes derived from CIA mice; experiment: Cytokine secretion in-vitro by splenocytes of mice with established CIA; details: splenocyte culture fluids
# Procedure: Secretion, in-vitro, of pro-inflammatory and anti-inflammatory cytokines by splenocytes derived from CIA mice treated with TD-PC, PBS, TD, PC, TD+PC or untreated mice was evaluated (FIGS. 32A-32D). The following cytokines secretions were examined: pro-inflammatory IL-1β (FIG. 32A), IL-17 (FIG. 32B), IL-6 (FIG. 32C), TNF-α (FIG. 32D) and anti-inflammatory IL-10 (FIG. 32E).
# NZBxW/F1 lupus mice [4] = experiment: Survival of lupus mice treated with TD-PC (Kaplan-Meier); details: already at week 24
# Procedure: A main complication of lupus nephritis is a short survival time due to severe kidney failure. Therefore, the survival time of mice treated either with TD-PC or with PC, tuftsin derivative (SEQ ID NO: 25) or PBS (control) was analyzed.
# [5] = tested on: IL-10+CD25+CD1d+ Breg cells; experiment: Breg expansion in splenocytes of mice with established CIA (FACS); details: isolated splenocytes; PBS 0.4%
# Procedure: The mean percentage of Breg cells in isolated splenocytes following treatment with TD-PC, PBS, TD (SEQ ID NO: 25), PC, TD+PC and None was measured within IL-10+CD25+CD1d+ subset. […] Representative data of IL-10+CD25+CD1d+ levels in splenocytes derived from TD-PC, PBS, TD (SEQ ID NO: 25), PC and TD+PC treated mice gating on IL-10+ B cells, are presented in FIG. 34A.
# NZBxW/F1 lupus mice [6] = experiment: Circulating anti-dsDNA antibodies in lupus mice treated with TD-PC (ELISA); details: sera at 30 weeks, dilution 1:800; between groups incl. PBS
# Procedure: Titers of circulating anti-dsDNA antibodies in the sera of control and treated mice were monitored during the development of lupus, and their levels were measured every 3 weeks. […] FIG. 23 presents the anti dsDNA antibodies titers in the sera at the age 30 weeks at a dilution of 1:800.
# CIA mice = experiment: Anti-collagen type II antibodies in sera of CIA mice; details: day 30, sera dilution 1:200
# Procedure: Titers of anti-collagen type II antibodies in mice sera at a dilution of 1:200 (OD at 405 nm) were measured at day 30 after disease induction while arthritis was fully manifested (FIG. 27). […] The mean OD level of the anti-collagen type II antibodies in the mice treated with TD-PC per os was 0.685±0.09 while the corresponding mean OD level in control mice treated with PBS per os was 1.09±0.17. Furthermore, the mean OD level of the anti-collagen type II antibodies in mice treated with TD-PC s.c was 0.615±0.08, whereas the corresponding mean OD level mice treated with PBS s.c was 1.03±0.13 (p<0.001).
# [7] = tested on: CD4+CD25+FOXP3+ Treg cells; experiment: Treg expansion in splenocytes of CIA mice (FACS), Example 16; details: vs PBS
# From the text: The frequency of CD4+CD25+FOXP3+ Treg cells subset in isolated mice splenocytes, following treatment with TD-PC or control (PBS) is elucidated in FIGS. 29A-29B. […] Representative data of the CD4+CD25+FOXP3+ levels in splenocytes derived from TD-PC and PBS treated mice gating on CD4+ T cells are presented in FIG. 29A and the corresponding statistics is presented in FIG. 29B.
# DBA/1 CIA mice = experiment: Arthritis score in mice with established CIA (treatment from day 16)
# From the text: Rheumatoid Arthritis is a progressive joint deformation disease caused by severe inflammation. CIA mice were subjected to subcutaneous injections of TD-PC, tuftsin derivative (SEQ ID NO: 25), PC, a mix of TD and PC, or PBS, 3 times a week. […] Treatment started as day 16 after disease induction when disease symptoms were already notable. […] The significant reduction in arthritis score was illustrious from day 7 after treatment administration and lasted until day 35 (the day mice were sacrificed).
# [8] = tested on: splenocytes of NZBW/F1 female mice; experiment: Cytokine mRNA in splenocytes of lupus mice treated with TD-PC (RT-PCR); details: week 30; vs PBS
# Procedure: as §1
smiles,measurement,setting,value
"C[C@@H](O)[C@H](N)C(=O)N[C@@H](CCCCN)C(=O)N1CCC[C@H]1C(=O)N[C@@H](CCCNC(=N)N)C(=O)NCC(=O)N[C@@H](Cc1ccc(O)c(N=Nc2ccc(OP(=O)([O-])OCC[N+](C)(C)C)cc2)c1)C(=O)O [TD-PC, Thr-Lys-Pro-Arg-Gly-Tyr-PC] (H-TKPRG[X1]-OH)",immune complex (IC) deposits in the mesangium / nephritis class,[1],class-II nephritis
same,mice with proteinuria above 100 mg/dl,"[1]; age of 30 weeks, PBS 72%",21%
same,Breg phenotype expansion in isolated splenocytes,Breg cells,significantly stimulated
same,IL-17 secretion from splenocytes,[2]; in vitro,significant decline
same,IL-10 secretion by splenocytes,[2]; in-vitro,remarkably increased
same,TGFβ production by splenocytes,[2]; in-vitro,significantly upregulated
same,reduction of splenocyte secretion of IFNγ,[2]; in-vitro,5.2 times
same,mean IL-10 level,[3]; PBS 298,1745 pg/mL
same,mean IL-6 level,[3]; PBS 840,480 pg/mL
same,mean IL-1β level,[3]; PBS 883,320 pg/mL
same,mean TNF-α level,[3]; PBS 1073,342 pg/mL
same,mean IL-17 level,[3]; PBS 2170,1770 pg/mL
same,percentage of death number vs PBS injected mice,NZBxW/F1 lupus mice [4],significant difference
same,mean percentage of IL-10+CD25+CD1d+ Breg cells,[5],13.73%
same,titers of circulating anti-dsDNA antibodies,NZBxW/F1 lupus mice [6],No statistically significant change
same,mean OD level of anti-collagen type II antibodies,"CIA mice; per os, PBS 1.09±0.17",0.685±0.09 OD at 405 nm
same,mean OD level of anti-collagen type II antibodies,"CIA mice; s.c, PBS 1.03±0.13",0.615±0.08 OD at 405 nm
same,CD4+CD25+FOXP3+ Treg cells in isolated splenocytes,[7],striking increase
same,mean arthritis score,"DBA/1 CIA mice; day 35, s.c. 3 times a week, PBS 13.8±0.45",6.8±0.8
same,average arthritis score,"DBA/1 CIA mice; time 0 (treatment initiation, day 16 after disease induction), baseline",3.6±0.9
same,mRNA expression of IFNγ in splenocytes,[8],inhibited
same,mRNA expression of TGFβ in splenocytes,[8],increased
